From patent publication US7601852B2, “Macrocyclic kinase inhibitors” (Kosan Biosciences Incorporated, priority 2006, dated 2009)
Where two headings read alike, the source gives them in different places.

Key:
[1] = test system: COLO829 (B-Raf V600E) human melanoma cancer cell line; experiment: Inhibitory concentration against COLO829 cancer cell line; type: cell-based
Description: (§1) The biological activity of compounds III and IV is compared against that of the natural product hypothemycin in Table A. Inhibitory concentrations against three cancer cell lines is provided. COLO829 B is a human melanoma cancer cell line having a B-Raf V600E mutation. HT29 is a human colon cancer cell line also having a B-Raf V600E mutation. SKOV3 is a human […] cancer cell line having wild-type B-Raf. Additionally, Ki and Kinact for ERK2 are provided.

[2] = test system: HT29 (B-Raf V600E) human colon cancer cell line; experiment: Inhibitory concentration against HT29 cancer cell line; type: cell-based
Description: as §1

[3] = test system: SKOV3 (wild-type B-Raf) human breast cancer cell line; experiment: Inhibitory concentration against SKOV3 cancer cell line; type: cell-based
Description: as §1

ERK2 = ERK2 (Homo sapiens, UniProt P28482); experiment: ERK2 Binding; conditions: for kinact: read-out: ERK2 Binding Kinact
Sequence of ERK2 (P28482 whole entry, species assumed): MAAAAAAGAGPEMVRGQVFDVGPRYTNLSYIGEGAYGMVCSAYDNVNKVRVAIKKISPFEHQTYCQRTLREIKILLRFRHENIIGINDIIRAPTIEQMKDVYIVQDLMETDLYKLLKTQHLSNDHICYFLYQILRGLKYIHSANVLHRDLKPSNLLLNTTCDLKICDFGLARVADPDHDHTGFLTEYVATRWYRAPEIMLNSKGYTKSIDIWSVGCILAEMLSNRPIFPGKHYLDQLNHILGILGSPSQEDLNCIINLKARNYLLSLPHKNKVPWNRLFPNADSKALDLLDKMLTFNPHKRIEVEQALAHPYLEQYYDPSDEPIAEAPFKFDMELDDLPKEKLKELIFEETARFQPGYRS
Description: as §1

panel of 124 kinases = conditions: cited from earlier work
[4] = COLO-829, COLO829 human melanoma cell line, B-Raf V600E, read-out: Inhibitory Concentration (IC50) COLO829 (B-Raf V600E)
[5] = HT-29, HT29 human colon cancer cell line, B-Raf V600E, read-out: Inhibitory Concentration (IC50) HT29 (B-Raf V600E)
[6] = SK-OV-3, SKOV3 cell line, wild-type B-Raf, read-out: Inhibitory Concentration (IC50) SKOV3 (wild-type B-Raf)

IC50 [1, 4] | IC50 [2, 5] | IC50 [3, 6] | Ki (ERK2; read-out: ERK2 Binding Ki) | Compound | IC50 ([1]; Homo sapiens, COLO-829, read-out: Inhibitory Concentration (IC50) COLO829 (B-Raf V600E)) | IC50 ([2]; Homo sapiens, HT-29, read-out: Inhibitory Concentration (IC50) HT29 (B-Raf V600E)) | IC50 ([3]; SK-OV-3, read-out: Inhibitory Concentration (IC50) SKOV3 (wild-type B-Raf)) | Ki (ERK2) | kinact (ERK2) | number of kinases without active site cysteine inhibited (panel of 124 kinases; of 105 kinases not having the active site cysteine) | number of active site cysteine kinases inhibited (panel of 124 kinases; of the 19 kinases having the active site cysteine) | number of kinases inhibited (panel of 124 kinases; of the whole panel of 124 kinases)
0.31 µM | 1.42 µM | > 100 µM |  | C[C@@H]1/C=C\C(=O)[C@@H](O)[C@@H](O)COCc2cc(O)cc(O)c2C(=O)O[C@H]1C [IV] |  |  |  |  |  |  |  | 
 |  |  |  | COc1cc(O)c2c(c1)[C@H]1O[C@@H]1C[C@H](O)[C@H](O)C(=O)/C=C\C[C@H](C)OC2=O [Hypothemycin, hypothemycin] | 0.046 µM | 0.26 µM | 4 µM | 2.7 ± 0.8 µM | 0.005 ± 2e-06 s⁻¹ | 2 | 18 | 20
0.36 µM | 0.86 µM | 74 µM | 3.1 ± 0.4 µM | C[C@H]1C/C=C\C(=O)[C@@H](O)[C@@H](O)COCc2cc(O)cc(O)c2C(=O)O1 [Compound III] |  |  |  |  | 9.1e-05 s⁻¹ |  |  | 
